Test results reported in patent US7445894B2, “Compositions and methods for detection and isolation of phosphorylated molecules” (priority 2002, dated 2008).

Experiments:
pepsin = pepsin (Sus scrofa, UniProt P00791); assay: Detection of phosphoproteins in SDS-polyacrylamide gels with binding solution; details: monophosphorylated protein, binding solution with gallium chloride, SDS polyacrylamide mini-gel
Description: (§1) Proteins were loaded in two-fold dilution series on SDS polyacrylamide mini-gels from 2 ng-1000 ng; each protein sample was done in series in four replicate gels. The phosphoproteins were α-casein (7 or 8 phosphates); dephosphorylated α-casein (1 or 2 phosphates); β-casein (5 phosphates); ovalbumin (2 phosphates) and pepsin (1 phosphate). BSA contains no phosphates and was used as a negative control.
(§2) Phosphoproteins were separated by SDS-polyacrylamide gel electrophoresis utilizing a 4% T, 2.6% C stacking gel, pH 6.8 and 13% T, 2.6% C separating gel, and pH 8.8, according to standard procedures. % T is the total monomer concentration (acrylamide+crosslinker) expressed in grams per 100 mL and % C is the percentage crosslinker (e.g., N,N′-methylene-bis-acrylamide, N,N′-diacryloylpiperazine or other suitable agent). The separating gels were 8 cm wide by 5 cm high and […] in thickness. After electrophoresis, the gels were fixed by immersing them in 100 mL 45% methanol and 5% acetic acid for 90 minutes. The gels were washed twice in water for a total of 30 minutes. The gels were then added to a binding solution of the invention (Example 1E) and incubated for 120 minutes at room temperature with gentle orbital shaking, typically 50 rpm. The binding buffer contained 50 mM NaOAc (pH 4.0), 250 mM sodium chloride, 20% v/v 1,2-propanediol, 1 μM gallium chloride. […]

β-casein [1] = biological target: T1, β-casein (Bos taurus, UniProt P02666); assay: as above; details: pentaphosphorylated protein, binding solution with gallium chloride, SDS polyacrylamide mini-gel
T1 sequence (P02666 16-224): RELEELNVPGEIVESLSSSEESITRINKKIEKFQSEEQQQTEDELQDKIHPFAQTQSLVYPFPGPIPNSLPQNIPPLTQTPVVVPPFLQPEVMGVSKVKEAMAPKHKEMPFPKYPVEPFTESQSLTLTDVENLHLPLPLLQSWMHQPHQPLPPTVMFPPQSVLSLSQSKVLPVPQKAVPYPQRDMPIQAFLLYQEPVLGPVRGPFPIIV
Description: as §1, §2

lysozyme = biological target: T2, lysozyme (Gallus gallus, UniProt P00698); assay: Fluorescence polarization of Compound 2-Ga3+ with non-phosphorylated control protein; type: binding; details: 1.0 μM Compound 2, 100 μM lysozyme plus 1 μM gallium chloride
T2 construct: purchased Sigma Chemical Company L-7651
Description: First, an assay was conducted with a (1) phosphoprotein (ovalbumin) and a (2) control non-phosphorylated protein (lysozyme). A modified binding solution containing 1.0 μM Compound 2 was incubated in 50 mM 2-(N-morpholino)ethanesulfonic acid (pH 3.0 to 3.5), 500 mM NaCl at room temperature in parallel to solutions containing, in addition, (a) 1 μM gallium chloride, (b) 100 μM lysozyme plus 1 μM gallium chloride, or (c) and 100 μM ovalbumin plus 1 μM gallium chloride. The fluorescence polarization of the resulting solutions was then measured in a fluorescence spectrophotometer with excitation at 530 nm and emission at 545 to 700 nm. The integrated polarized emission spectra yielded anisotropy “r values” of: r=0.10+/−0.003+/−0.02 (Compound 2 plus gallium); r=0.10+/−0.002 (Compound 2 plus lysozyme non-phosphorylated control); r=0.34+/−0.002 (Compound 2 plus gallium plus ovalbumin), indicating phosphorylation-dependent binding of the Compound 2 to this phosphoprotein (see FIG. 10A)

β-casein [2] = biological target: T1, β-casein; assay: Phosphoprotein detection on HydroGel microarray; details: pentaphosphorylated protein, binding solution with gallium chloride
Description: The protein was loaded in a two-fold dilution series from 166 pg-0.324 pg on the microarray.
Four specific, purified proteins including β-casein, ovalbumin, pepsin and bovine serum albumin were arrayed from a source plate (384 well plate) at a concentration of 0.975 μg/mL-0.5 mg/mL in water, onto HydroGel coated slides (Perkin Elmer), using the BioChip Arrayer™ (Packard Instrument Co., Meriden, Conn.). The BioChip Arrayer™ utilizes a PiezoTip™ Dispenser consisting of 4 glass capillaries. Proteins were dispensed from the PiezoTip™ by droplets 333 pL in volume to create array spots 175 microns in diameter with a 500 micron horizontal and vertical pitch (pitch=center to center spacing of spots). Proteins were arrayed in duplicate in four rows, with 10 dilution points, resulting in an array of 160 spots. The resulting concentration range of the array was 166.5 pg/spot-0.325 pg/spot. For detection of phosphoproteins, slides were incubated for 1 hour on a rotator in 1 μM of Compound 2, in buffer containing 0.5 M NaCl, 20% 1,2-propanediol, 1 μM GaCl3, and 0.05 M NaOAc, pH 4.0. Slides were then washed for 1 hour on a rotator in 0.05 M NaOAc, pH 4.0, containing 10% methanol followed by a 15 minute water wash. […] Phosphate content per protein was determined to be as follows: β-casein, five phosphates; ovalbumin, two phosphates; pepsin, one phosphate; and BSA, no phosphates.

T2 sequence (P00698 19-147): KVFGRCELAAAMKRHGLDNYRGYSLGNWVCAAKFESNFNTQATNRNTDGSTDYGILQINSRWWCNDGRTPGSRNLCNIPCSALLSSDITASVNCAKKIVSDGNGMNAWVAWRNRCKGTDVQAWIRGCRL
Chain of pepsin (P00791 60-385): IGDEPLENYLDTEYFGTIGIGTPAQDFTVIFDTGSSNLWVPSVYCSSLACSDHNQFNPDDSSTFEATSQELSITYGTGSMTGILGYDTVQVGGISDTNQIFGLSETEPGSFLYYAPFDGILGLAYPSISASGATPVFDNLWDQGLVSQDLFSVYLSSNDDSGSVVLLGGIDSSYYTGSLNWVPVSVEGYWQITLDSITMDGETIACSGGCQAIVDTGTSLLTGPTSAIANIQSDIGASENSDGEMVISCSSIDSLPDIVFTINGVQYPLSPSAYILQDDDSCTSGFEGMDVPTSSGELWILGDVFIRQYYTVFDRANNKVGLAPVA

amount detectable in gel (pepsin): 8 ng | amount detectable in gel (β-casein [1]): 1 to 2 ng | anisotropy r value (lysozyme): 0.10+/−0.002 | amount detected on HydroGel microarray (β-casein [2]): 0.65 pg
Substance: Rhod-5F [Compound 2]
